Measurements reported in patent US20230000843A1, “MEDICINAL COGNITIVE TREATMENTS” (ACTINOGEN MEDICAL LIMITED, priority 2019, published 2023).

Assays:
healthy elderly subjects [1] = experiment: One Card Learning test (visual recognition learning); type: in vivo, human
Description: (§1) The test was aimed at assessing if, and to what extent, Xanamem™ 20 mg a day may improve performance in healthy elderly subjects from Baseline (Week 0) to Weeks 2, 4, 6, 8, 10, 12 (End of Treatment) and 16 (Follow-up), as measured by changes in the Cogstate Test Battery. 42 subjects were randomised in which 30 subjects received 20 mg Xanamem™ once a day and 12 subjects received matching placebo once a day.
(§2) For each visit, excluding the Screening visit and safety visits (Week 6 and Week 10), subjects arrived at the study site having fasted for at least 10 hours. The subjects took Xanamem™ at site after all the pre-dose blood samples had been taken. Xanamem™ was taken 30 minutes after the start of a meal. On non-study visit days, the subjects took Xanamem™ at the same time each morning with food (30 minutes after the start of the meal).
(§3) One capsule of Xanamem™, or the matching placebo, was administered orally with approximately 200 mL of warm water once a day and with food in the morning, to the subjects from Baseline (Week 0) to End of Treatment (Week 12) for a total of 12 weeks.
To assess the efficacy of Xanamem™ 20 mg once a day in improving cognitive ability in the subjects, the Cogstate Test Battery of the subjects were checked at Baseline (Week 0), Weeks 2, 4, and 8, Week 12 (End of Treatment) and Week 16 (Follow-up). […]

healthy elderly subjects [2] = experiment: Cogstate One Back working memory test; type: in vivo, human
Description: as §1, §2
(§4) One capsule of Xanamem™, or the matching placebo, was administered orally with approximately 200 mL of warm water once a day and with food in the morning, to the subjects from Baseline (Week 0) to End of Treatment (Week 12) for a total of 12 weeks. […]
The Cogstate One Back memory test is a valid measure of working memory. […] The software measured the speed and accuracy of each response.

healthy elderly subjects [3] = experiment: Cogstate Detection test (simple reaction time, psychomotor function); type: in vivo, human
Description: as §1, §2, §4
For this test, the subject pressed a “YES” response key as soon as they detected an event (a card turning face up presented in the centre of the computer screen). The software measured the response time to detect each event.

[4] = CSF and corresponding plasma concentrations at the EOT visit; type: in vivo; conditions: human, oral, 20 mg, four CSF samples at the EOT visit, read-out: ratio of CSF to plasma concentrations
Description: The ratio of Xanamem™ CSF to plasma concentrations in the four CSF samples taken at the EOT visit ranged from 0.028 to 0.421; the range of CSF concentrations was 3.48 to 6.25 ng/mL, compared to 11.6 to 126 ng/mL for the corresponding plasma concentrations.

[5] = Plasma concentrations and pharmacokinetics; type: in vivo, human
Description: as §1, §2, §3
The mean Xanamem™ plasma concentration at 3-5 hours after the first dose of the study was 169 ng/mL. […] The mean trough concentration at Weeks 2, 4, and 8, was 89, 73, and 78 ng/mL, and the mean 3 to 5 hour concentration was 353. 331, and 330 ng/mL for weeks 2, 4, and 8, respectively.
Only body weight was identified as a covariate impacting PK in this model, confirming that the PK of Xanamem™ are consistent between healthy volunteers, patients with Alzheimer's Disease, and healthy elderly subjects.

healthy elderly subjects [6] = experiment: Cogstate Test Battery overall: impairment of cognition; type: in vivo, human; conditions: 20 mg compared to placebo over 12 weeks
Description: as §1
(§5) To assess the efficacy of Xanamem™ 20 mg once a day in improving cognitive ability in the subjects, the Cogstate Test Battery of the subjects were checked at Baseline (Week 0), Weeks 2, 4, and 8, Week 12 (End of Treatment) and Week 16 (Follow-up).
The Cogstate Test Battery included the following tests: detection test, identification test, one card learning test, one back working memory test, and the continuous paired associate learning test (CPAL; paired associate learning).

healthy elderly subjects [7] = experiment: Continuous Paired Associate Learning test (CPAL); type: in vivo, human
Description: as §1, §2, §3, §5
The Continuous Paired Associate Learning test is a measure of visual associate memory and uses a well-validated paired associate learning paradigm in which the subject must learn the locations of a number of amoeba-like shapes on the computer screen.
Beneath all but two of the blue spheres were amoeboid shapes, one of which matched the central display; the two remaining circles were distractors. In the exposure phase of the test all of the to-be-remembered pattern-location associations were presented on the computer screen simultaneously.
After a five second delay, a pattern was shown in the central location and this signals that the subject should touch the location in the periphery that contained the same pattern. This process continued until the participant had acknowledged all of the pattern-location associations. The learning phase began with the same test display presented during the exposure phase except that now all of the peripheral locations were shown as blue spheres. One of the patterns presented in the exposure phase was presented in the centre location. With the presentation of this pattern, the subject was required to select the peripheral location where an identical pattern was hidden beneath the blue sphere. […]
(§6) Finding the correct location for all patterns in the set was defined as a learning trial. […] The software recorded each move as an error or as a correct move.

healthy elderly subjects [8] = experiment: Continuous Paired Associate Learning-Delayed test; type: in vivo, human; conditions: 20 mg once a day orally, 12 weeks, compared to placebo group
Description: as §1, §2, §4, §6

healthy elderly subjects [9] = experiment: Cogstate Identification test (choice reaction time, visual attention); type: in vivo, human
Description: as §1, §2, §4
In this test an event (a card turning face up) occurred in the centre of the computer screen and the subject decided “YES” or “NO” as to whether this event met a predefined and unchanging criterion (i.e. is the color of the card red?). The software measured the speed and accuracy of each response.

[10] = 20 mg once a day orally, 12 weeks, compared to placebo group
[11] = 12 weeks treatment, 20 mg versus placebo, statistically significant

Kp [4]: 0.028 to 0.421 | mean 3 to 5 hour plasma concentration ([5]; Week 2, 20 mg once a day): 353 ng/mL | mean trough plasma concentration ([5]; Week 2, 20 mg once a day): 89 ng/mL | mean 3 to 5 hour plasma concentration ([5]; Week 4, 20 mg once a day): 331 ng/mL | mean trough plasma concentration ([5]; Week 4, 20 mg once a day): 73 ng/mL | mean 3 to 5 hour plasma concentration ([5]; Week 8, 20 mg once a day): 330 ng/mL | mean trough plasma concentration ([5]; Week 8, 20 mg once a day): 78 ng/mL | mean plasma concentration at 3-5 hours ([5]; after the first dose, 20 mg oral with food): 169 ng/mL | steady state of plasma concentrations ([5]; trough and 3-5 hour concentrations consistent across Weeks 2, 4 and 8): steady state had been achieved by Week 2
SMILES: O=C(c1csc(-c2cn[nH]c2)c1)N1[C@@H]2CC[C@H]1C[C@](O)(c1ncccn1)C2 [Xanamem™, (5-(1H-Pyrazol-4-yl)thiophen-3-yl)(3-hydroxy-3-(pyrimidin-2-yl)-8-azabicyclo[3.2.1]octan-8-yl)methanone]
visual learning (accuracy of performance, arcsine transformation of proportion of correct responses) (healthy elderly subjects [1]; 20 mg once a day orally, week 8, compared to placebo group): improved visual learning | effect size (ES) data for One Card Learning outcomes (healthy elderly subjects [1]; 20 mg versus placebo, overall): tended to favour Xanamem™ 20 mg | working memory (speed of performance, log10 transformed reaction times for correct responses) (healthy elderly subjects [2]; [10]): improved working memory | effect size, speed of performance on One-back test (working memory) (healthy elderly subjects [2]; [11]): > 0.6 | psychomotor function (speed of performance, log10 transformed reaction times for correct responses) (healthy elderly subjects [3]; [10]): improved psychomotor function | effect on Detection test (psychomotor speed) (healthy elderly subjects [3]; 20 mg versus placebo, by time point): evident at week 8 | pharmacokinetic model ([5]; only body weight identified as covariate): one-compartment model with first-order absorption and elimination | impairment of cognition associated with treatment (healthy elderly subjects [6]): no systemic evidence of impairment in any respect of cognition | Hippocampal dependent learning and memory (number of errors remembering the associations) (healthy elderly subjects [7]; [10]): improved Hippocampal dependent learning and memory | differences on Continuous Paired Associates Learning Test outcomes (healthy elderly subjects [7]; 20 mg versus placebo): statistically significant differences in data were in favour of Xanamem™ 20 mg | effect size difference on Continuous Paired Associates Learning Test, sensitivity analysis (healthy elderly subjects [7]; 20 mg versus placebo, Week 4): favoured Xanamem™ 20 mg | effect size (ES) data for Continuous Paired Associates outcomes (healthy elderly subjects [7]; 20 mg versus placebo, overall): tended to favour Xanamem™ 20 mg | Hippocampal dependent learning and memory (number of errors remembering the associations after a delay) (healthy elderly subjects [8]): improved Hippocampal dependent learning and memory | visual attention (speed of performance, log10 transformed reaction times for correct responses) (healthy elderly subjects [9]; [10]): improved visual attention | effect size, speed of performance on Identification test (attention) (healthy elderly subjects [9]; [11]): > 0.6
